Reference: ChEMBL document CHEMBL1139296, “Pleuromutilin derivatives having a purine ring. Part 2: influence of the central spacer on the antibacterial activity against Gram-positive pathogens” (2009)

Key:
Assay type in all cases: functional
Staphylococcus aureus [1] = assay: Antimicrobial activity against methicillin-susceptible Staphylococcus aureus infected mouse assessed as survival rate administered iv after 1 hr of infection
Staphylococcus aureus [2] = assay: Antimicrobial activity against methicillin-resistant Staphylococcus aureus KMP9
Moraxella catarrhalis = assay: Antimicrobial activity against Moraxella catarrhalis K1209 by NCCLS method
Enterococcus faecium = assay: Antimicrobial activity against vancomycin-resistant Enterococcus faecium KU1778 by NCCLS method
Staphylococcus aureus [3] = assay: Antimicrobial activity against methicillin-susceptible Staphylococcus aureus Smith by NCCLS method
Haemophilus influenzae = assay: Antimicrobial activity against Haemophilus influenzae TH13 by NCCLS method
Streptococcus pneumoniae [4] = assay: Antimicrobial activity against penicillin-susceptible Streptococcus pneumoniae ATCC 49619 by NCCLS method
Streptococcus pneumoniae [5] = assay: Antimicrobial activity against penicillin-resistant Streptococcus pneumoniae KT2524 by NCCLS method
Streptococcus pyogenes = assay: Antimicrobial activity against Streptococcus pyogenes […] by NCCLS method

Row | Structure (SMILES) | ED50 (Staphylococcus aureus [1]) [mg/kg] | MIC (Staphylococcus aureus [2]) [µg/mL] | MIC (Moraxella catarrhalis) [µg/mL] | MIC (Enterococcus faecium) [µg/mL] | MIC (Staphylococcus aureus [3]) [µg/mL] | MIC (Haemophilus influenzae) [µg/mL] | MIC (Streptococcus pneumoniae [4]) [µg/mL] | MIC (Streptococcus pneumoniae [5]) [µg/mL] | MIC (Streptococcus pyogenes) [µg/mL]
1 | C=C[C@]1(C)C[C@@H](OC(=O)CN2CCN(C(=O)CCn3cnc4c(N5CCC(N)C5)ncnc43)CC2)[C@]2(C)[C@H](C)CC[C@]3(CCC(=O)[C@@H]32)[C@@H](C)[C@@H]1O.Cl.Cl (some centres not stated) | 0.8 | 0.5 | 0.25 | 0.5 | 0.25 | 4 | 0.063 | 0.063 | 0.032
2 | C=C[C@]1(C)C[C@@H](OC(=O)CN(C)CCN(C)C(=O)CCn2cnc3c(N4CCC(N)C4)ncnc32)[C@]2(C)[C@H](C)CC[C@]3(CCC(=O)[C@@H]32)[C@@H](C)[C@@H]1O.Cl.Cl (some centres not stated) | > 3.13 | 4 | 0.25 | 1 | 1 | 8 | 0.063 | 0.125 | 0.063
3 | C=C[C@]1(C)C[C@@H](OC(=O)CSC2CCCN(C(=O)CCn3cnc4c(N5CCNCC5)nc(N)nc43)C2)[C@]2(C)[C@H](C)CC[C@]3(CCC(=O)[C@@H]32)[C@@H](C)[C@@H]1O.Cl (some centres not stated) | 3.13 | 1 | 0.125 | 0.25 | 0.5 | 2 | 0.032 | 0.032 | 0.016
4 | C=C[C@]1(C)C[C@@H](OC(=O)CSCC2CN(C(=O)CCn3cnc4c(N5CCNCC5)nc(N)nc43)CCO2)[C@]2(C)[C@H](C)CC[C@]3(CCC(=O)[C@@H]32)[C@@H](C)[C@@H]1O.Cl (some centres not stated) | 4.81 | 2 | 0.25 | 0.5 | 1 | 8 | 0.063 | 0.125 | 0.032
5 | C=C[C@]1(C)C[C@@H](OC(=O)CS[C@@H]2CCN(C(=O)CCn3cnc4c(N5CCNCC5)nc(N)nc43)C2)[C@]2(C)[C@H](C)CC[C@]3(CCC(=O)[C@@H]32)[C@@H](C)[C@@H]1O.Cl | 1.28 | 2 | 0.25 | 0.5 | 0.05 | 2 | 0.063 | 0.125 | 0.032
6 | C=C[C@]1(C)C[C@@H](OC(=O)CSCCN(C)C(=O)CCn2cnc3c(N4CCC(N)C4)ncnc32)[C@]2(C)[C@H](C)CC[C@]3(CCC(=O)[C@@H]32)[C@@H](C)[C@@H]1O.Cl (some centres not stated) | 1.76 | 0.5 | 0.125 | 0.063 | 0.25 | 2 | 0.016 | 0.016 | ≤ 0.004
7 | C=C[C@]1(C)C[C@@H](OC(=O)CSC2CCN(C(=O)CCn3cnc4c(N5CCNCC5)nc(N)nc43)CC2)[C@]2(C)[C@H](C)CC[C@]3(CCC(=O)[C@@H]32)[C@@H](C)[C@@H]1O.Cl | 1.86 | 0.5 | 0.25 | 0.125 | 0.25 | 1 | 0.063 | 0.063 | 0.032
8 | CC[C@]1(C)C[C@@H](OC(=O)CS(=O)(=O)C2CCN(C(=O)CCn3cnc4c(N5CCC(N)C5)ncnc43)CC2)[C@]2(C)[C@H](C)CC[C@]3(CCC(=O)[C@@H]32)[C@@H](C)[C@@H]1O.Cl (some centres not stated) | 1.79 | 2 | 0.125 | 1 | 0.5 | 4 | 0.063 | 0.125 | 0.032
9 | C=C[C@]1(C)C[C@@H](OC(=O)CS[C@H]2CCN(C(=O)CCn3cnc4c(N5CCNCC5)nc(N)nc43)C2)[C@]2(C)[C@H](C)CC[C@]3(CCC(=O)[C@@H]32)[C@@H](C)[C@@H]1O.Cl | 3.16 | 1 | 0.25 | 0.25 | 0.5 | 2 | 0.063 | 0.125 | 0.016
10 | C=C[C@]1(C)C[C@@H](OC(=O)CNC2CCN(C(=O)CCn3cnc4c(N5CCC(N)C5)ncnc43)CC2)[C@]2(C)[C@H](C)CC[C@]3(CCC(=O)[C@@H]32)[C@@H](C)[C@@H]1O.Cl (some centres not stated) | 1.75 | 2 | 0.25 | 0.5 | 0.25 | 2 | 0.125 | 0.125 | 0.063
11 | C=C[C@]1(C)C[C@@H](OC(=O)CSCCCN(C)C(=O)CCn2cnc3c(N4CCC(N)C4)ncnc32)[C@]2(C)[C@H](C)CC[C@]3(CCC(=O)[C@@H]32)[C@@H](C)[C@@H]1O.Cl (some centres not stated) | 0.86 | 0.25 | 0.063 | 0.063 | 0.125 | 1 | 0.016 | 0.016 | 0.008
12 | C=C[C@]1(C)C[C@@H](OC(=O)CSCC2CCN(C(=O)CCn3cnc4c(N5CCNCC5)nc(N)nc43)CC2)[C@]2(C)[C@H](C)CC[C@]3(CCC(=O)[C@@H]32)[C@@H](C)[C@@H]1O.Cl | 2.77 | 0.5 | 0.125 | 0.063 | 0.25 | 4 | 0.032 | 0.032 | 0.016
13 | C=C[C@]1(C)C[C@@H](OC(=O)CSC2CCN(C(=O)CCn3cnc4c(N5CCC(N)C5)ncnc43)CC2)[C@]2(C)[C@H](C)CC[C@]3(CCC(=O)[C@@H]32)[C@@H](C)[C@@H]1O.Cl (some centres not stated) | 1.47 | 0.125 | 0.032 | 0.032 | 0.063 | 1 | 0.016 | 0.032 | 0.016
14 | CC[C@]1(C)C[C@@H](OC(=O)CSC2CCN(C(=O)CCn3cnc4c(N5CCNCC5)nc(N)nc43)CC2)[C@]2(C)[C@H](C)CC[C@]3(CCC(=O)[C@@H]32)[C@@H](C)[C@@H]1O.Cl | 1.66 | 0.25 | 0.125 | 0.125 | 0.25 | 1 | 0.063 | 0.063 | 0.032
15 | C=C[C@]1(C)C[C@@H](OC(=O)CSC2CN(C(=O)CCn3cnc4c(N5CCNCC5)nc(N)nc43)C2)[C@]2(C)[C@H](C)CC[C@]3(CCC(=O)[C@@H]32)[C@@H](C)[C@@H]1O.Cl | 4.07 | 2 | 0.125 | 0.5 | 0.5 | 2 | 0.125 | 0.25 | ≤ 0.004
16 | C=C[C@]1(C)C[C@@H](OC(=O)CSC2CCCN(C(=O)CCn3cnc4c(N5CCC(N)C5)ncnc43)C2)[C@]2(C)[C@H](C)CC[C@]3(CCC(=O)[C@@H]32)[C@@H](C)[C@@H]1O.Cl (some centres not stated) | 2.02 | 0.5 | 0.063 | 0.063 | 0.25 | 2 | 0.016 | 0.016 | 0.008
17 | C=C[C@]1(C)C[C@@H](OC(=O)CSC2CCN(C(=O)CCn3cnc4c(N5CCNCC5)nc(N)nc43)C2)[C@]2(C)[C@H](C)CC[C@]3(CCC(=O)[C@@H]32)[C@@H](C)[C@@H]1O.Cl (some centres not stated) | 2.61 | 1 | 0.125 | 0.25 | 0.25 | 1 | 0.063 | 0.125 | ≤ 0.004
18 | CC[C@]1(C)C[C@@H](OC(=O)COC2CCN(C(=O)CCn3cnc4c(N5CCC(N)C5)ncnc43)CC2)[C@]2(C)[C@H](C)CC[C@]3(CCC(=O)[C@@H]32)[C@@H](C)[C@@H]1O.Cl (some centres not stated) | 2.04 | 0.5 | 0.125 | 0.125 | 0.25 | 4 | 0.032 | 0.063 | 0.032
